Data from patent publication US9303042B2, “Triazolothienopyrimidine compound inhibitors of urea transporters and methods of using inhibitors” (The Regents of the University of California, priority 2012, dated 2016).

Tests used:
UT-A3 = biological target: T1, UT-A3 (Mus musculus, UniProt Q8R4T9); experiment: Transepithelial urea transport in MDCK cells stably expressing UT-A3; assay type: cell-based; details: UTBinh-14 10 μM, forskolin
T1 construct: expressed in transfected cells
T1 sequence (Q8R4T9 1-461 isoform Q8R4T9-3): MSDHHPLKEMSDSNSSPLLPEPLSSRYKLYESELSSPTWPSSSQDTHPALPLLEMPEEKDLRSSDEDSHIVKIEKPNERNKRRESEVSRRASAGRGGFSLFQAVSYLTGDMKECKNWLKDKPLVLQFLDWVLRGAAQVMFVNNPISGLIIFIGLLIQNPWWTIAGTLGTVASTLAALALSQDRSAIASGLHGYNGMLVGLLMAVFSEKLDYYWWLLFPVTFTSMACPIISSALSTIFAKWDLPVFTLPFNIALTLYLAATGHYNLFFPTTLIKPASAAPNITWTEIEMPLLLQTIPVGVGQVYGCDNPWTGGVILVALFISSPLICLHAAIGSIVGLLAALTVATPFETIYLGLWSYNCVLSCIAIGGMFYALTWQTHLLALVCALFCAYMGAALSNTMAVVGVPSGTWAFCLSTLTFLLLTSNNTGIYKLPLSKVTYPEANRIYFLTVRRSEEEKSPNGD
Method: UT-B selectivity and cytotoxicity were studied. Because of sequence similarities between UT-B and UT-A isoforms, UT-A inhibition was measured. Transepithelial urea transport was measured in MDCK cells stably expressing UT-A1, UT-A3, and UT-B. UT-A1 and UT-A3 are cAMP-regulated urea transporters expressed in kidney tubule epithelia (see, e.g., Frohlich et al., Am. J. Physiol. Cell Physiol. 291:C600-606 (2006); Tickle et al., Am. J. Physiol. Regul. Integr. Comp Physiol 0.297: R323-329 (2009); Stewart et al., Am. J. Physiol. Renal Physiol. 292:F1157-63 (2006)). MDCK cells were cultured on collagen-coated porous filters for measurement of urea accumulation in the apical solution following addition of urea to the basolateral solution.
cDNAs encoding mouse UT-A3 and UT-B were cloned into pcDNA3.1 and used to generate stably transfected MDCK cell lines. MDCK cells stably expressing rat UT-A1 (MDCK-UT-A1) (see, e.g., Frohlich et al., supra) were obtained as described (see, e.g., Levin et al., FASEB J., supra). Cells were cultured in DMEM containing 10% FBS and 0.5 mg/mL G418. […] Urea flux in the basolateral-to-apical direction across unstimulated and forskolin-stimulated cell layers was measured in response to a 15-mM urea gradient. […]

mice = experiment: Urinary concentration in mice; assay type: in vivo, mouse; details: 1 week high-protein diet, 300 μg
AQP1 = biological target: T2, AQP1 (Mus musculus, UniProt Q02013); experiment: Erythrocyte osmotic water permeability by stopped-flow light scattering, wild type erythrocytes; assay type: cell-based; details: 100 mM sucrose gradient, 10 °C
T2 construct: endogenous in cells; host or cells: erythrocytes of wild-type CD1 mice
T2 sequence (Q02013 1-269): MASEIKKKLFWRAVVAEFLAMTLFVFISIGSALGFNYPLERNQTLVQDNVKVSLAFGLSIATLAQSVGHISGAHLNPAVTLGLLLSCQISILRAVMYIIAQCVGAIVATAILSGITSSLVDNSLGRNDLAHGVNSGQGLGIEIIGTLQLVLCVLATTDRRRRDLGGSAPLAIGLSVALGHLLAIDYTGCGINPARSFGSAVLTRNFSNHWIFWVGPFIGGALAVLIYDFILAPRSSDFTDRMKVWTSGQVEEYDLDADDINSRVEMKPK
Method: Erythrocyte urea and water permeabilities were measured by stopped-flow light scattering using a Hi-Tech Sf-51 instrument (Wiltshire, UK). […] Urea permeability and percentage inhibition were computed as described (see, e.g., Levin et al., FASEB J. supra, 2007)). In some experiments, different urea gradients (25-200 mM) were used, or inhibitor was added only to the erythrocyte-containing or urea-containing solutions. In some experiments an outwardly directed urea gradient was used in which erythrocytes were incubated for 30 min with PBS containing specified urea and mixed in the stopped-flow apparatus with PBS. In reversibility experiments, erythrocytes were incubated for 30 min with inhibitor, washed three times to remove inhibitor, and urea transport assayed. Osmotic water permeability was measured using a 100 mM gradient of sucrose.
Erythrocyte osmotic water permeability was measured by stopped-flow light scattering. […] Life Sci. 52:474-78 (2009)).

[1] = LC/MS analysis of compound in mouse kidney, blood and urine
Method: In some studies, mice were placed on low, normal or […] diets (4%, 20% or 40% casein, Harlan Labs.) for 1 week prior study of dDAVP effects. […] Urea concentration was determined by a colorimetric enzymatic assay as described above. Measurements were also done in the absence of dDAVP in which urine was collected during free access to food and water.
Kidneys were weighed, mixed with acetic acid (100 μL per 1 g tissue) and ethyl acetate (10 mL per 1 g tissue), and homogenized.

CFTR = biological target: T3, CFTR (Homo sapiens, UniProt P13569); experiment: CFTR chloride conductance by short-circuit current; assay type: cell-based; details: 10 μM, forskolin-activated
T3 construct: expressed in transfected cells

[2] = for several hours following a single intraperitoneal administration

T3 sequence (P13569 whole entry): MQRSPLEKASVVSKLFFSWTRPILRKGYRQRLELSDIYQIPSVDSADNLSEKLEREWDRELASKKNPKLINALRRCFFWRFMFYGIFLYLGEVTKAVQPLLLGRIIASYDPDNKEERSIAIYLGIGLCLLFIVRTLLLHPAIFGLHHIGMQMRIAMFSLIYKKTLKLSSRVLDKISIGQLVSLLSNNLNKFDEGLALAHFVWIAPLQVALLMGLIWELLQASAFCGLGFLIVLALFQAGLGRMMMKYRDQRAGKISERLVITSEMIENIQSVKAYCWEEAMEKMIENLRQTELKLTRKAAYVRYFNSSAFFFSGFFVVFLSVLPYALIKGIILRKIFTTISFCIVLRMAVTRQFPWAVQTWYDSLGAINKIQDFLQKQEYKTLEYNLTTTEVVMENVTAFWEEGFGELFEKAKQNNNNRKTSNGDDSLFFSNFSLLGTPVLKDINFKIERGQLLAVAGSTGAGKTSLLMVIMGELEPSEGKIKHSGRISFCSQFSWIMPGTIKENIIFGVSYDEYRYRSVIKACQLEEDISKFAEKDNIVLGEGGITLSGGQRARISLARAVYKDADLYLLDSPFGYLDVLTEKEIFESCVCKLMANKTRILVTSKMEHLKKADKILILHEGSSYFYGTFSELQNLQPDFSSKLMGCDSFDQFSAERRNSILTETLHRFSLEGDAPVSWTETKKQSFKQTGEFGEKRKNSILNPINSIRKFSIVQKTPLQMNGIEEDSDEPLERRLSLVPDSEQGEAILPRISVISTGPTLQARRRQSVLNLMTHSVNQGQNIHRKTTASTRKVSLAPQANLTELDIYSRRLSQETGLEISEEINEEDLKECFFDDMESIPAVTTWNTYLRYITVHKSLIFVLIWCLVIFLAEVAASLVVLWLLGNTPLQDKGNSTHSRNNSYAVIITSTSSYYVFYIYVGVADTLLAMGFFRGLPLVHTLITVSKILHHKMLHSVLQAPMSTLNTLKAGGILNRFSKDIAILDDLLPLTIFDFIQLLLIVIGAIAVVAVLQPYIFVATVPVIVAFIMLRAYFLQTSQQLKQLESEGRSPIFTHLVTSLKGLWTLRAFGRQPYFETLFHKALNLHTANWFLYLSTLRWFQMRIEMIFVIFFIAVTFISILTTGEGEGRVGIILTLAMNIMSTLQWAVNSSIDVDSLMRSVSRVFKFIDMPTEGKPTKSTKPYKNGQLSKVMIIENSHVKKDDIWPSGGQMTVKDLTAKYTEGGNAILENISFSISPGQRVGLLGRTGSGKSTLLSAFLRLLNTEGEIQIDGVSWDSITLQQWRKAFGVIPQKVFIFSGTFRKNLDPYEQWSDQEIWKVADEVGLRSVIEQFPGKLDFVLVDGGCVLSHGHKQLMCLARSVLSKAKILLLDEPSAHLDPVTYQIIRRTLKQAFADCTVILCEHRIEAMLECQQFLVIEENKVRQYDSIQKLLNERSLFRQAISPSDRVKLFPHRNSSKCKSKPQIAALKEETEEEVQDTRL

## CCc1ccc(S(=O)(=O)c2nnn3c2nc(NCc2cccs2)c2sccc23)cc1 [UTBinh-14, [3-(4-Ethyl-benzenesulfonyl)-thieno[2,3-e][1,2,3]triazolo[1,5-a]pyrimidin-5-yl]-thiophen-2-ylmethylamine]
UT-A3
  inhibition of UT-A3 facilitated urea transport: little inhibition
mice
  effect on dDAVP-stimulated urinary concentration, high-protein diet: robust effect
AQP1
  inhibition of water transport in erythrocytes from wild type mice: no significant inhibition
[1]; for at least 4 h after single intraperitoneal 300 μg
  concentration in kidney: greater than 1 μM
[1]; [2]
  concentration in blood: greater than 1 μM
  concentration in urine: greater than 1 μM
[1]; single intraperitoneal 300 μg, normalized to kidney water volume
  Peak concentration in kidney: approximately 10 μM
CFTR
  inhibition of CFTR chloride conductance: no significant inhibition
